Laboratory results as given in patent US10829473B2, “Modulators of the cystic fibrosis transmembrane conductance regulator protein and methods of use” (AbbVie Overseas S.Á.R.L., priority 2017, dated 2020).
Where two headings read alike, the source gives them in different places.

Target: T1, F508delCFTR (Homo sapiens, UniProt P13569, DEL508-508)
T1 construct: expressed in transfected cells; host or cells: CFBE41o- human lung derived epithelial cells (CFBE41o-F508delCFTR-HRP), doxycycline-inducible
T1 sequence (P13569 with tags, fused parts or gaps DEL508-508): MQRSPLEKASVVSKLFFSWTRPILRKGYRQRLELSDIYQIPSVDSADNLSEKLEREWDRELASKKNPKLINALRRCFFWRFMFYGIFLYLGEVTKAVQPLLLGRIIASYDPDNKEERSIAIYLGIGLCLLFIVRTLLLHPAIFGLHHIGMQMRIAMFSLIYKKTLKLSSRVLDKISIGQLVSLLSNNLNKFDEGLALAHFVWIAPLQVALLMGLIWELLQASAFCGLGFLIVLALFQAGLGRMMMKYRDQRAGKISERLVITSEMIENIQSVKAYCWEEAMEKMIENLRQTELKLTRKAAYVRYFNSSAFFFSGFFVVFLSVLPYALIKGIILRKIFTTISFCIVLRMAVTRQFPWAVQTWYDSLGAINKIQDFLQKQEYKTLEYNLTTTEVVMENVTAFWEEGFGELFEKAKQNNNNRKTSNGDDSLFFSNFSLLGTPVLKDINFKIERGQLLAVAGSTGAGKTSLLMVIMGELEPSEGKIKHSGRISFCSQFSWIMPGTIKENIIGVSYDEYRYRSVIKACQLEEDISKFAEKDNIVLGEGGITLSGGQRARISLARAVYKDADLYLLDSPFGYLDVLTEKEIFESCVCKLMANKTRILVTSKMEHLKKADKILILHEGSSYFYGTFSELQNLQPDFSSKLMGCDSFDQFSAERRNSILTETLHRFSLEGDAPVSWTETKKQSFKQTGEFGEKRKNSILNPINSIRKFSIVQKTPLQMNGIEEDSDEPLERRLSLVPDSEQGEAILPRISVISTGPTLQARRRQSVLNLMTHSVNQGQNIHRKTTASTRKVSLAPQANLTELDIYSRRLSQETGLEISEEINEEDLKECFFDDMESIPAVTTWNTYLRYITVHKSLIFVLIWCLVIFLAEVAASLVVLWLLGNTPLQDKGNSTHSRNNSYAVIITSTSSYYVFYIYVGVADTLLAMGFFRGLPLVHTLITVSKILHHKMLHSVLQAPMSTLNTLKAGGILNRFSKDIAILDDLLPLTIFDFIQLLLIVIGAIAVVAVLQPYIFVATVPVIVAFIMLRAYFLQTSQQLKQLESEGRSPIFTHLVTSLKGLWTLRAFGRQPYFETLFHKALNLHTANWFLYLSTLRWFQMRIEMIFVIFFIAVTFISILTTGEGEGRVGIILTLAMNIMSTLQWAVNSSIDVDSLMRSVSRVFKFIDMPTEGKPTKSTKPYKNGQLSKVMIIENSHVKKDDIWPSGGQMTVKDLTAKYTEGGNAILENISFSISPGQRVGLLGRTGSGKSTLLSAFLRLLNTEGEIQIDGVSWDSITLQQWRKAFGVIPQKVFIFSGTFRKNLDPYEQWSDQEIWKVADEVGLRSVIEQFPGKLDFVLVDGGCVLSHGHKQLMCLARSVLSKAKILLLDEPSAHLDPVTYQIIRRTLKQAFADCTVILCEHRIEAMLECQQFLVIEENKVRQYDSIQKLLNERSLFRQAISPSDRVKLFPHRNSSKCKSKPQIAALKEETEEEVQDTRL
Test: Cell Surface Expression-Horse Radish Peroxidase (CSE-HRP) Assay;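 as to EC50 (with co-corrector): co-corrector chromenyl benzoic acid corrector at 2 or 3 µM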;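 as to Maximum % activity (without co-corrector): % of on-plate positive control chromenyl benzoic acid corrector at 2 or 3 µM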
Format: cell-based
Conditions: for Maximum % activity (with co-corrector) / Emax: maximum at any tested concentration; for Emax: read-out: Maximum % activity (without co-corrector)
Method in brief: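 Corrector compounds were given as 8-point 3-fold series from 20 or 30 μM, with or without a 2 μM co-corrector, for 18-24 h at 33 °C. Surface HRP was read by luminol luminescence as % of positive control; variable-Hill-slope sigmoidal fitting gave EC50 from triplicate plates.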

[1] = test compound alone, without co-corrector, read-out: EC50 (without co-corrector)
[2] = with co-corrector, read-out: EC50 (with co-corrector)

| Structure (SMILES) | EC50 [1] [µM] | Maximum % activity (with co-corrector) (with co-corrector) | EC50 [2] [µM] | Emax (without co-corrector) [%] |
| --- | --- | --- | --- | --- |
| COc1ccc(C2CCC2)c(C2(C(=O)NS(=O)(=O)c3cccc4nc(C)ccc34)CC2)c1 [II-47] | < 3 | +++ (≥350) | < 3 | > 150 |
| COc1ccc(CO)cc1C1(C(=O)NS(=O)(=O)c2cccc3ncccc23)CC1 [II-48] | > 10 | ++ (≥150 and <350) | 3 to 10 | < 50 |
| COCc1ccc(OC)c(C2(C(=O)NS(=O)(=O)c3cccc4ncccc34)CC2)c1 [II-49] | < 3 | +++ (≥350) | < 3 | > 150 |
| COc1cccc(C2(C(=O)NS(=O)(=O)c3cccc4ncccc34)CC2)c1 [II-56] | 3 to 10 | +++ (≥350) | 3 to 10 | > 150 |
| COc1ccc(C2CC2)cc1C1(C(=O)NS(=O)(=O)c2cccc3nc(C)ccc23)CC1 [II-60] | – | +++ (≥350) | – | > 150 |
| Cc1ccc(C)c(C2(C(=O)NS(=O)(=O)c3cccc4ncccc34)CC2)c1 [II-61] | < 3 | +++ (≥350) | < 3 | > 150 |
| CCc1ccc(OC)c(C2(C(=O)NS(=O)(=O)c3cccc4nc(N)ccc34)CC2)c1 [II-71] | < 3 | +++ (≥350) | < 3 | > 150 |
| CCOc1ccc(C)cc1C1(C(=O)NS(=O)(=O)c2cccc3[nH]ncc23)CC1 [II-74] | < 3 | +++ (≥350) | < 3 | > 150 |
| Cc1ccc(OC(C)C)c(C2(C(=O)NS(=O)(=O)c3cccc4[nH]ncc34)CC2)c1 [II-75] | < 3 | +++ (≥350) | < 3 | > 150 |
| Cc1ccc(OC(C)C)c(C2(C(=O)NS(=O)(=O)c3cccc4[nH]ccc34)CC2)c1 [II-79] | < 3 | +++ (≥350) | < 3 | > 150 |
| Cc1ccc(C)c(C2(C(=O)NS(=O)(=O)c3cccc4[nH]ccc34)CC2)c1 [II-80] | 3 to 10 | +++ (≥350) | < 3 | > 150 |
| COCC1(c2ccc(OC)c(C3(C(=O)NS(=O)(=O)c4cccc5nc(N)ccc45)CC3)c2)CC1 [II-82] | 3 to 10 | +++ (≥350) | < 3 | > 150 |
| CCOc1ccc(C)cc1C1(C(=O)NS(=O)(=O)c2cccc3nc(OC)ccc23)CC1 [II-83] | < 3 | +++ (≥350) | < 3 | > 150 |
| CCOc1ccc(C)cc1C1(C(=O)NS(=O)(=O)c2cccc3nc(NC)ccc23)CC1 [II-84] | < 3 | +++ (≥350) | < 3 | > 150 |
| CCOc1ccc(C)cc1C1(C(=O)NS(=O)(=O)c2cccc3[nH]ccc23)CC1 [II-85] | < 3 | +++ (≥350) | < 3 | > 150 |
| COc1ccc(C(OC)C(F)(F)F)cc1C1(C(=O)NS(=O)(=O)c2cccc3ncccc23)CC1 (centres unmarked) [II-86] | 3 to 10 | +++ (≥350) | < 3 | > 150 |
| COc1ccc(C(C)OC)cc1C1(C(=O)NS(=O)(=O)c2cccc3ncccc23)CC1 (centres unmarked) [II-87] | 3 to 10 | +++ (≥350) | < 3 | > 150 |
| COc1ccc(C(C)(C)OC)cc1C1(C(=O)NS(=O)(=O)c2cccc3[nH]ccc23)CC1 [II-88] | 3 to 10 | +++ (≥350) | < 3 | > 150 |
| Cc1ccc(OC2COC2)c(C2(C(=O)NS(=O)(=O)c3cccc4nc(N)ccc34)CC2)c1 [II-90] | 3 to 10 | +++ (≥350) | 3 to 10 | > 150 |
| COc1cc(C2(C(=O)NS(=O)(=O)c3cccc4[nH]ncc34)CC2)c(OCC(C)C)cn1 [II-91] | 3 to 10 | +++ (≥350) | < 3 | > 150 |
| COC[C@H](C)Oc1ccc(C)cc1C1(C(=O)NS(=O)(=O)c2cccc3ncccc23)CC1 [II-92] | < 3 | +++ (≥350) | < 3 | > 150 |
| COc1ccc2c(S(=O)(=O)NC(=O)C3(c4cc(C5CC5)cnc4OCC(C)C)CC3)cccc2n1 [II-93] | < 3 | +++ (≥350) | < 3 | > 150 |
| COc1ccc2c(S(=O)(=O)NC(=O)C3(c4cc(C5CCC5)cnc4OCC(C)C)CC3)cccc2n1 [II-94] | < 3 | +++ (≥350) | < 3 | > 150 |

Results, then the compound that gave them:

| EC50 [1] [µM] | Maximum % activity (with co-corrector) (with co-corrector) | EC50 [2] [µM] | Emax (without co-corrector) [%] | Structure (SMILES) |
| --- | --- | --- | --- | --- |
| < 3 | +++ (≥350) | < 3 | > 150 | COc1ncc(C2CCC2)c(C)c1C1(C(=O)NS(=O)(=O)c2cccc3ccc(C)nc23)CC1 [II-44] |
| 3 to 10 | +++ (≥350) | < 3 | > 150 | COc1cccc(C)c1C1(C(=O)NS(=O)(=O)c2cccc3ccc(C)nc23)CC1 [II-45] |
| < 3 | +++ (≥350) | < 3 | > 150 | COc1ccc(C2CCC2)c(C2(C(=O)NS(=O)(=O)c3cccc4ncccc34)CC2)c1 [II-46] |
| 3 to 10 | +++ (≥350) | < 3 | > 150 | COc1cccc(C)c1C1(C(=O)NS(=O)(=O)c2cccc3nc(C)ccc23)CC1 [II-50] |
| < 3 | +++ (≥350) | < 3 | > 150 | COc1ccc(C)c(C)c1C1(C(=O)NS(=O)(=O)c2cccc3nc(C)ccc23)CC1 [II-51] |
| < 3 | +++ (≥350) | < 3 | > 150 | COc1ccc(C2CC2)c(C)c1C1(C(=O)NS(=O)(=O)c2cccc3nc(C)ccc23)CC1 [II-52] |
| 3 to 10 | +++ (≥350) | < 3 | > 150 | COc1cccc(C)c1C1(C(=O)NS(=O)(=O)c2cccc3c2CCCN3)CC1 [II-53] |
| < 3 | +++ (≥350) | < 3 | > 150 | COc1ccc(Cl)c(OC)c1C1(C(=O)NS(=O)(=O)c2cccc3ncccc23)CC1 [II-54] |
| – | +++ (≥350) | – | > 150 | COc1ccc(C2CC2)cc1C1(C(=O)NS(=O)(=O)c2cccc3ncccc23)CC1 [II-57] |
| < 3 | +++ (≥350) | < 3 | > 150 | COc1cc(C)ccc1C1(C(=O)NS(=O)(=O)c2cccc3ncccc23)CC1 [II-63] |
| 3 to 10 | +++ (≥350) | < 3 | > 150 | COc1c(C)cccc1C1(C(=O)NS(=O)(=O)c2cccc3ncccc23)CC1 [II-64] |
| < 3 | +++ (≥350) | < 3 | > 150 | COc1cc(C2CCC2)cc(OC)c1C1(C(=O)NS(=O)(=O)c2cccc3c2ccn3C)CC1 [II-65] |
| < 3 | +++ (≥350) | < 3 | > 150 | COc1cc(C2CCC2)cc(OC)c1C1(C(=O)NS(=O)(=O)c2cccc3ccn(C)c23)CC1 [II-66] |
| < 3 | +++ (≥350) | < 3 | > 150 | COc1cc(C2CCC2)cc(OC)c1C1(C(=O)NS(=O)(=O)c2cccc3cnn(C)c23)CC1 [II-67] |
| 3 to 10 | +++ (≥350) | < 3 | > 150 | COc1cc(C2CCC2)cc(OC)c1C1(C(=O)NS(=O)(=O)c2cccn3nccc23)CC1 [II-68] |
| < 3 | +++ (≥350) | < 3 | > 150 | COc1cc(C2CCC2)cc(OC)c1C1(C(=O)NS(=O)(=O)c2cccc3nc(C)ccc23)CC1 [II-69] |
| < 3 | +++ (≥350) | < 3 | > 150 | COc1cc(C2CCC2)cc(OC)c1C1(C(=O)NS(=O)(=O)c2cccc3nc(N)ccc23)CC1 [II-70] |
| < 3 | +++ (≥350) | < 3 | > 150 | CCc1ccc(OC)c(C2(C(=O)NS(=O)(=O)c3cccc4[nH]ncc34)CC2)c1 [II-72] |
| 3 to 10 | +++ (≥350) | 3 to 10 | > 150 | COc1cc(C2CCC2)cc(OC)c1C1(C(=O)NS(=O)(=O)c2cccc3[nH]ncc23)CC1 [II-76] |
| < 3 | +++ (≥350) | < 3 | > 150 | COc1ccc(C)c(C)c1C1(C(=O)NS(=O)(=O)c2cccc3[nH]ncc23)CC1 [II-77] |
| < 3 | +++ (≥350) | < 3 | > 150 | COc1ccc(C2CC2)c(C)c1C1(C(=O)NS(=O)(=O)c2cccc3[nH]ncc23)CC1 [II-78] |
| 3 to 10 | +++ (≥350) | 3 to 10 | > 150 | COc1ccc(C2(C)COC2)cc1C1(C(=O)NS(=O)(=O)c2cccc3ncccc23)CC1 [II-89] |
